# Literature values, collected in PubChem BioAssay AID1259409 (Chemical Carcinogenesis Research Information System (CCRIS), 2018).
# Test system: rodent chemically induced tumor inhibition, incidence and multiplicity
# Experiment: CCRIS tumor inhibitor studies
# Details: Route [Inhibitor]: ORAL
smiles,measurement,setting,value
O=[Se](O)O,"tumour outcome (control, treated, inhibition, significance)","Carcinogen: N-METHYL-N-NITROSOUREA, 684-93-5, Dose [Inhibitor]: 5 MG IN DIET DAILY STARTING AT AGE 5 WK 2 WK PRIOR TO FIRST CARCINOGEN TREATMENT AND CONTINUING FOR DURATION OF STUDY (S, Species: HAMSTER, Strain/Sex: SYRIAN/MALE, Target Tissue: Type of Lesion: TRACHEA: NEOPLASM, Dose [Carcinogen]: 0.5% SOLUTION (PH 5) 1/WK FOR 12 WK, Promoter: NONE USED","11/34 (32%), 11/31 (35%), -9%, not significant"
same,"tumour outcome (control, treated, inhibition, significance)","Carcinogen: N-METHYL-N-NITROSOUREA, 684-93-5, Dose [Inhibitor]: 5 MG/KG IN DIET DAILY STARTING 7 D AFTER CARCINOGEN TREATMENT AND CONTINUING FOR DURATION OF STUDY (STUDY DURATION: 90 D, Species: RAT, Strain/Sex: SPRAGUE-DAWLEY/FEMALE, Target Tissue: Type of Lesion: MAMMARY GLAND: ADENOCARCINOMA, Dose [Carcinogen]: 50 MG/KG BW IN 0.9% SALINE ONCE AT 50 D OF AGE, Promoter: NONE","95%, 85%, 11%, not calculated"
same,"tumour outcome (control, treated, inhibition, significance)","Carcinogen: N-NITROSOBIS(2-OXOPROPYL)AMINE, 60599-38-4, Dose [Inhibitor]: 0, 4 PPM IN DRINKING WATER BEGINNING POST CARCINOGEN TREATMENT AND CONTINUING FOR 37 WK (STUDY DURATION: 40 WK), Species: HAMSTER, Strain/Sex: SYRIAN/FEMALE, Target Tissue: Type of Lesion: PANCREAS: ADENOCARCINOMA, Dose [Carcinogen]: 10 MG/KG 1/WK FOR 3 WK, Promoter: NONE USED","11/28 (39%), 9/30 (30%), 23%, not calculated"
same,"tumour outcome (control, treated, inhibition, significance)","Carcinogen: NITROSOMETHYL-3-CARBOXYPROPYLAMINE, 61445-55-4, Dose [Inhibitor]: 0, 0.35 PPM IN DIET BEGINNING 1 WK PRIOR TO CARCINOGEN DOSE AND CONTINUED FOR DURATION OF STUDY (STUDY DURATION: LIFETIM, Species: RAT, Strain/Sex: F344/FEMALE, Target Tissue: Type of Lesion: BLADDER: TUMORS, Dose [Carcinogen]: 20 ML OF A 600 MG/L SOLUTION IN DRINKING WATER 5 D/WK FOR 28 WK, Promoter: NONE USED","18/20 (90%), 18/20 (90%), 0%, not significant"
same,"tumour outcome (control, treated, inhibition, significance)","Carcinogen: NITROSOMETHYL-3-CARBOXYPROPYLAMINE, 61445-55-4, Dose [Inhibitor]: 0, 0.7 PPM IN DIET BEGINNING 1 WK PRIOR TO CARCINOGEN DOSE AND CONTINUED FOR DURATION OF STUDY (STUDY DURATION: LIFETIME, Species: RAT, Strain/Sex: F344/FEMALE, Target Tissue: Type of Lesion: BLADDER: TUMORS, Dose [Carcinogen]: 20 ML OF A 600 MG/L SOLUTION IN DRINKING WATER 5 D/WK FOR 28 WK, Promoter: NONE USED","18/20 (90%), 20/20 (100%), -11%, not significant"
same,"tumour outcome (control, treated, inhibition, significance)","Carcinogen: NITROSOMETHYL-3-CARBOXYPROPYLAMINE, 61445-55-4, Dose [Inhibitor]: 0, 1.4 PPM IN DIET BEGINNING 1 WK PRIOR TO CARCINOGEN DOSE AND CONTINUED FOR DURATION OF STUDY (STUDY DURATION: LIFETIME, Species: RAT, Strain/Sex: F344/FEMALE, Target Tissue: Type of Lesion: BLADDER: TUMORS, Dose [Carcinogen]: 20 ML OF A 600 MG/L SOLUTION IN DRINKING WATER 5 D/WK FOR 28 WK, Promoter: NONE USED","18/20 (90%), 20/20 (100%), -11%, not significant"
same,"tumour outcome (control, treated, inhibition, significance)","Carcinogen: NITROSOMETHYL-3-CARBOXYPROPYLAMINE, 61445-55-4, Dose [Inhibitor]: 0, 2.1 PPM IN DIET BEGINNING 1 WK PRIOR TO CARCINOGEN DOSE AND CONTINUED FOR DURATION OF STUDY (STUDY DURATION: LIFETIME, Species: RAT, Strain/Sex: F344/FEMALE, Target Tissue: Type of Lesion: BLADDER: TUMORS, Dose [Carcinogen]: 20 ML OF A 600 MG/L SOLUTION IN DRINKING WATER 5 D/WK FOR 28 WK, Promoter: NONE USED","18/20 (90%), 17/20 (85%), 6%, not significant"
same,"tumour outcome (control, treated, inhibition, significance)","Carcinogen: NITROSOMETHYLCYCLOHEXYLAMINE, 5432-28-0, Dose [Inhibitor]: 0, 0.35 PPM IN DIET BEGINNING 1 WK PRIOR TO CARCINOGEN DOSE AND CONTINUED FOR DURATION OF STUDY (STUDY DURATION: LIFETIM, Species: RAT, Strain/Sex: F344/FEMALE, Target Tissue: Type of Lesion: ESOPHAGUS: TUMORS, Dose [Carcinogen]: 20 ML OF A 5 MG/L SOLUTION IN DRINKING WATER 5 D/WK FOR 28 WK, Promoter: NONE USED","17/20 (85%), 17/20 (85%), 0%, not significant"
same,"tumour outcome (control, treated, inhibition, significance)","Carcinogen: NITROSOMETHYLCYCLOHEXYLAMINE, 5432-28-0, Dose [Inhibitor]: 0, 0.7 PPM IN DIET BEGINNING 1 WK PRIOR TO CARCINOGEN DOSE AND CONTINUED FOR DURATION OF STUDY (STUDY DURATION: LIFETIME, Species: RAT, Strain/Sex: F344/FEMALE, Target Tissue: Type of Lesion: ESOPHAGUS: TUMORS, Dose [Carcinogen]: 20 ML OF A 5 MG/L SOLUTION IN DRINKING WATER 5 D/WK FOR 28 WK, Promoter: NONE USED","17/20 (85%), 17/20 (85%), 0%"
same,"tumour outcome (control, treated, inhibition, significance)","Carcinogen: NITROSOMETHYLCYCLOHEXYLAMINE, 5432-28-0, Dose [Inhibitor]: 0, 1.4 PPM IN DIET BEGINNING 1 WK PRIOR TO CARCINOGEN DOSE AND CONTINUED FOR DURATION OF STUDY (STUDY DURATION: LIFETIME, Species: RAT, Strain/Sex: F344/FEMALE, Target Tissue: Type of Lesion: ESOPHAGUS: TUMORS, Dose [Carcinogen]: 20 ML OF A 5 MG/L SOLUTION IN DRINKING WATER 5 D/WK FOR 28 WK, Promoter: NONE USED","17/20 (85%), 16/20 (80%), 6%, not significant"
same,"tumour outcome (control, treated, inhibition, significance)","Carcinogen: NITROSOMETHYLCYCLOHEXYLAMINE, 5432-28-0, Dose [Inhibitor]: 0, 2.1 PPM IN DIET BEGINNING 1 WK PRIOR TO CARCINOGEN DOSE AND CONTINUED FOR DURATION OF STUDY (STUDY DURATION: LIFETIME, Species: RAT, Strain/Sex: F344/FEMALE, Target Tissue: Type of Lesion: ESOPHAGUS: TUMORS, Dose [Carcinogen]: 20 ML OF A 5 MG/L SOLUTION IN DRINKING WATER 5 D/WK FOR 28 WK, Promoter: NONE USED","17/20 (85%), 18/20 (90%), -6%, not significant"
same,"tumour outcome (control, treated, inhibition, significance)","Carcinogen: NONE USED, Dose [Inhibitor]: 0.5 PPM IN DIET DAILY STARTING AT AGE 6 WK AND CONTINUING FOR DURATION OF STUDY (STUDY DURATION: 13 MO), Species: MOUSE, Strain/Sex: BALB/FEMALE, Target Tissue: Type of Lesion: MAMMARY GLAND: ADENOCARCINOMA, Promoter: NONE USED","15/30 (50%), 8/30 (27%), 46%, p<0.05"
same,"tumour outcome (control, treated, inhibition, significance)","Carcinogen: NONE USED, Dose [Inhibitor]: 2 PPM IN DIET DAILY STARTING AT AGE 6 WK AND CONTINUING FOR DURATION OF STUDY (STUDY DURATION: 13 MO), Species: MOUSE, Strain/Sex: BALB/FEMALE, Target Tissue: Type of Lesion: MAMMARY GLAND: ADENOCARCINOMA, Promoter: NONE USED","15/30 (50%), 6/30 (20%), 60%, p<0.05"
same,outcome,"Carcinogen: UV-B IRRADIATION, Dose [Inhibitor]: 0, 0.5 MG/KG DIET FOR 29 WK BEGINNING 1 WK PRIOR TO CARCINOGEN TREATMENT (STUDY DURATION: 29 WK), Species: MOUSE, Strain/Sex: SKH:HR-1/FEMALE, Target Tissue: Type of Lesion: SKIN: TUMOR, Dose [Carcinogen]: 90 MJ/CM2 3/WK FOR 20 WK, Promoter: NONE USED","29, 17, 41%, p<0.05"
same,"tumour outcome (control, treated, inhibition, significance)","Dose [Inhibitor]: 0, 3 PPM IN DRINKING WATER AD LIBITUM FOR DURATION OF STUDY (STUDY DURATION: 79 WK), Species: RAT, Strain/Sex: WISTAR/MALE, Target Tissue: Type of Lesion: LIVER: CARCINOMA, Dose [Carcinogen]: 126 UG/WK IN DRINKING WATER FOR 27 WK, Promoter: NONE USED","61%, 0%, 100%, not calculated"
same,"tumour outcome (control, treated, inhibition, significance)","Dose [Inhibitor]: 0, 6 PPM IN DRINKING WATER AD LIBITUM FOR DURATION OF STUDY (STUDY DURATION: 79 WK), Species: RAT, Strain/Sex: WISTAR/MALE, Target Tissue: Type of Lesion: LIVER: CARCINOMA, Dose [Carcinogen]: 126 UG/WK IN DRINKING WATER FOR 27 WK, Promoter: NONE USED","61%, 0%, 100%, not calculated"
